# Where a name gives a salt, the structure may show the parent alone.
# Tests used:
# Tubulin (Homo sapiens) [1] = molecular target: T1, Tubulin (Homo sapiens) (UniProt P68371+Q9H4B7+P0DPH7+P68366+Q13509+Q71U36+P04350+Q3ZCM7+P07437+P68363+Q9BQE3+Q6PEY2+Q13885+Q9BVA1+Q9BUF5); experiment: Inhibition of [3H]Colchicine binding to tubulin (unknown origin) at 5 uM measured after 10 mins by DEAE-Cellulose filter method relative to control; assay type: protein-complex assay
# Tubulin = experiment: Inhibition of tubulin polymerization (unknown origin) assessed as reduction in tubulin assembly preincubated for 15 mins followed by GTP addition by spectrophotometric method; assay type: protein-complex assay, Homo sapiens
# MCF7 = experiment: Cytotoxicity against human MCF7 cells assessed as cell growth inhibition measured after 96 hrs; assay type: functional, cell-based; details: MCF7, 96 h
# KBM5 [2] = experiment: Cytotoxicity against Imatinib mesylate sensitive wild-type human KBM5 cells assessed as cell growth inhibition measured after 48 hrs by MTT assay; assay type: functional, cell-based; details: KBM5, 48 h
# SW480 = experiment: Cytotoxicity against human SW480 cells assessed as cell growth inhibition measured after 48 hrs by XTT dye based assay; assay type: functional; details: SW480, 48 h
# SW-620 = experiment: Cytotoxicity against human SW-620 cells assessed as cell growth inhibition measured after 48 hrs by XTT dye based assay; assay type: functional; details: SW-620, 48 h
# KBM5 [3] = experiment: Cytotoxicity against imatinib mesylate resistant wild-type human KBM5 cells expressing T315I mutant assessed as cell growth inhibition measured after 48 hrs by MTT assay; assay type: functional, cell-based; details: KBM5, 48 h
# [4] = Cytotoxicity against human U-343MG cells assessed as cell growth inhibition measured after 72 hrs by MTS colorimetric assay; assay type: functional, cell-based
# U-87 MG [5] = experiment: Cytotoxicity against human U-87MG cells assessed as cell growth inhibition measured after 48 hrs by MTS colorimetric assay; assay type: functional, cell-based, U-87MG ATCC
# [6] = Cytotoxicity against human U343MG cells assessed as cell growth inhibition by measuring maximum efficacy measured after 72 hrs by MTS colorimetric assay relative to control; assay type: functional; details: U-343MG
# U-87 MG [7] = experiment: Cytotoxicity against human U-87MG cells assessed as cell growth inhibition by measuring maximum efficacy measured after 48 hrs by MTS colorimetric assay relative to control; assay type: functional, U-87MG ATCC
# KU812 cell line = experiment: Cytotoxicity against Bcr-Abl expressing human KU812 cells assessed as cell growth inhibition measured after 48 hrs by MTT assay; assay type: functional, cell-based; details: KU812, 48 h
# Tubulin (Homo sapiens) [8] = molecular target: T1, Tubulin (Homo sapiens); experiment: Inhibition of [3H]Colchicine binding to tubulin (unknown origin) at 1 uM measured after 10 mins by DEAE-Cellulose filter method relative to control; assay type: protein-complex assay
Compound,inhibition (Tubulin (Homo sapiens) [1]) [%],IC50 (Tubulin) [nM],inhibition (Tubulin (Homo sapiens) [8]) [%],IC50 (MCF7) [nM],further results
COc1cc(C(=O)c2cn(-c3ccc(F)cc3)cc2-c2cccnc2)cc(OC)c1OC,80,560,–,39,–
COc1cc(C(=O)c2cn(-c3ccc(F)cc3)cc2-c2ccncc2)cc(OC)c1OC,87,580,–,9,IC50 (KBM5 [2]): 12.2 nM; IC50 (SW480): 934 nM; IC50 (SW-620): 66.5 nM; IC50 (KBM5 [3]): 13.1 nM; IC50 [4]: 432 nM; IC50 (U-87 MG [5]): 39.1 nM; Emax [6]: 75.1%; Emax (U-87 MG [7]): 56%; IC50 (KU812 cell line): 12.4 nM
COc1cc(C(=O)c2cn(-c3cccc(C)c3)cc2-c2ncco2)cc(OC)c1OC,77,720,–,75,–
COc1cc(C(=O)c2cn(-c3cccc(C)c3)cc2-c2ccccn2)cc(OC)c1OC,66,780,–,140,–
Cc1ccc(C(=O)Nc2ccc(CN3CCN(C)CC3)c(C(F)(F)F)c2)cc1C#Cc1cnc2cccnn12 [PONATINIB],–,–,–,–,IC50 (KBM5 [2]): 10.2 nM; IC50 (KBM5 [3]): 10.6 nM; IC50 (KU812 cell line): 8.5 nM
COc1cc(C(=O)c2cn(-c3ccc(C)cc3)cc2-c2ncco2)cc(OC)c1OC,90,720,45,42,–
Cc1ccc(NC(=O)c2ccc(CN3CCN(C)CC3)cc2)cc1Nc1nccc(-c2cccnc2)n1 [IMATINIB MESYLATE],–,–,–,–,IC50 (KBM5 [2]): 152 nM; IC50 (KBM5 [3]): 311 nM; IC50 (KU812 cell line): 311 nM
COc1cc(C(=O)c2cn(-c3ccc(C)cc3)cc2-c2cccnc2)cc(OC)c1OC,92,640,58,19,–
COc1cc(C(=O)c2cn(-c3ccc(F)cc3)cc2-c2ccoc2)cc(OC)c1OC,87,380,71,15,–
COc1cc(C(=O)c2cn(-c3cccc(C)c3)cc2-c2ccoc2)cc(OC)c1OC,87,420,64,21,–
COc1cc(C(=O)c2cn(-c3ccc(F)cc3)cc2-c2nccs2)cc(OC)c1OC,69,780,–,22,–

# The next lines start with results.
inhibition (Tubulin (Homo sapiens) [1]) [%],IC50 (Tubulin) [nM],inhibition (Tubulin (Homo sapiens) [8]) [%],Compound,IC50 (MCF7) [nM],further results
83,460,–,COc1cc(C(=O)c2cn(-c3ccc(C)cc3)cc2-c2ccccn2)cc(OC)c1OC,36,–
74,520,–,COc1cc(C(=O)c2cn(-c3cccc(C)c3)cc2-c2ccsc2)cc(OC)c1OC,65,–
83,490,–,COc1cc(C(=O)c2cn(-c3cccc(C)c3)cc2-c2nccs2)cc(OC)c1OC,20,–
44,820,–,COc1cc(C(=O)c2cn(-c3ccc(F)cc3)cc2-c2ccccn2)cc(OC)c1OC,73,–
80,560,–,COc1cc(C(=O)c2cn(-c3cccc(C)c3)cc2-c2ccco2)cc(OC)c1OC,23,–
76,550,–,COc1cc(C(=O)c2cn(-c3ccc(F)cc3)cc2-c2ccsc2)cc(OC)c1OC,15,–
88,590,–,COc1cc(C(=O)c2cn(-c3cccc(C)c3)cc2-c2ccncc2)cc(OC)c1OC,65,–
91,560,63,COc1cc(C(=O)c2cn(-c3ccc(C)cc3)cc2-c2nccs2)cc(OC)c1OC,14,–
68,1400,–,COc1cc(C(=O)c2cn(-c3ccc(F)cc3)cc2-c2ncco2)cc(OC)c1OC,93,–
92,460,71,COc1cc(C(=O)c2cn(-c3ccc(C)cc3)cc2-c2ccco2)cc(OC)c1OC,22,–
95,470,71,COc1cc(C(=O)c2cn(-c3ccc(C)cc3)cc2-c2ccoc2)cc(OC)c1OC,18,–
82,470,–,COc1cc(C(=O)c2cn(-c3ccc(F)cc3)cc2-c2ccco2)cc(OC)c1OC,17,–
94,440,70,COc1cc(C(=O)c2cn(-c3ccc(C)cc3)cc2-c2ccncc2)cc(OC)c1OC,9,–
78,740,–,COc1cc(C(=O)c2cn(-c3cccc(C)c3)cc2-c2cccnc2)cc(OC)c1OC,52,–
